Data taken from ChEMBL document CHEMBL5244219, “Recent developments of quinolone-based derivatives and their activities against Escherichia coli” (Eur J Med Chem, 2018).
Values after ≈ are worked out from the molar mass of the structure shown. Each block holds one molecule with its values, some of them ahead of it.

Key:
Assay type in all cases: functional
Escherichia coli [1] = test: Antibacterial activity against Escherichia coli assessed as bacterial growth inhibition by microdilution method
Escherichia coli [2] = test: Antibacterial activity against Escherichia coli assessed as bacterial growth inhibition measured after 24 hrs by broth micro dilution method
Escherichia coli [3] = test: Antibacterial activity against Escherichia coli NCTC 10418 assessed as bacterial growth inhibition incubated for 18 to 20 hrs by agar dilution method; settings: time 18-20 hrs
Escherichia coli [4] = test: Antibacterial activity against Escherichia coli ATCC 8739 assessed as bacterial growth inhibition incubated for 24 hrs by two-serial dilution method
Escherichia coli [5] = test: Antibacterial activity against Escherichia coli assessed as zone of inhibition at 500 to 1000 ug per disc; settings: dose 500-1000 µg
Escherichia coli [6] = test: Antibacterial activity against Escherichia coli assessed as bacterial growth inhibition incubated for 16 to 24 hrs by absorbance analysis; settings: time 16-24 hrs
Escherichia coli [7] = test: Antibacterial activity against Escherichia coli NIHJ JC-2 assessed as bacterial growth inhibition measured after 24 hrs by agar dilution method
Escherichia coli [8] = test: Antibacterial activity against Escherichia coli 2010-29 assessed as bacterial growth inhibition measured after 24 hrs by agar dilution method
Escherichia coli [9] = test: Antibacterial activity against Escherichia coli NIHJ assessed as bacterial growth inhibition measured after 24 hrs by agar dilution method
Escherichia coli [10] = test: Antibacterial activity against Escherichia coli 2010-05 assessed as bacterial growth inhibition measured after 24 hrs by agar dilution method
Escherichia coli [11] = test: Antibacterial activity against Escherichia coli MTCC 739 assessed as bacterial growth inhibition incubated for 24 hrs by spectrophotometric method
Escherichia coli [12] = test: Antibacterial activity against Escherichia coli KC-14 infected in po dosed mouse assessed as bacterial growth inhibition; settings: Escherichia coli, KC-14, read-out: ED50
Escherichia coli [13] = test: Antibacterial activity against Escherichia coli assessed as bacterial growth inhibition incubated for 18 to 20 hrs by agar dilution method; settings: time 18-20 hrs

SMILES: CC(=O)NC[C@H]1CN(c2ccc(N[C@@H]3CCN(c4nc5c(cc4F)c(=O)c(C(=O)O)cn5C4CC4)C3)c(F)c2)C(=O)O1
MIC (Escherichia coli [1]): ≥ 0.5 µg/mL

SMILES: CCn1cc(C(=O)O)c(=O)c2cc(F)c(-n3cc(CO[C@H]4O[C@H](COC(C)=O)[C@@H](OC(C)=O)[C@H](OC(C)=O)[C@@H]4OC(C)=O)nn3)c(F)c21
MIC (Escherichia coli [2]): > 6.25 µg/mL

SMILES: CCn1cc(C(=O)O)c(=O)c2cc(F)c(-n3cc(CO[C@H]4O[C@H](COC(C)=O)[C@H](OC(C)=O)[C@H](OC(C)=O)[C@H]4OC(C)=O)nn3)c(F)c21
MIC (Escherichia coli [2]): > 6.25 µg/mL

SMILES: O=C(O)c1cn(C2CC2)c2c(cc(F)c3nc[nH]c32)c1=O
MIC (Escherichia coli [4]): > 3 µg/mL

SMILES: COc1ccc2[nH]c(=O)c3cnn(Cc4ccccc4)c3c2c1
diameter of the inhibition zone (DIZ) (Escherichia coli [5]): 7 mm

SMILES: O=C(O)c1cn(C2CC2)c2c(cc(F)c3nc(-c4ccc(Cl)cc4)[nH]c32)c1=O
MIC (Escherichia coli [4]): > 3 µg/mL

SMILES: Cc1[nH]c2cc3ccccc3cc2c(=O)c1CC(=O)O
MIC (Escherichia coli [6]): 8.97 µg/mL (≈ 33.6 µM)

SMILES: CNC1CN(c2c(F)c(N)c3c(=O)c(C(=O)O)cn(-c4cc(N)c(F)cc4CO)c3c2Cl)C1
MIC (Escherichia coli [7]): 0.008 µg/mL (≈ 0.0167 µM)
MIC (Escherichia coli [8]): 1 µg/mL (≈ 2.08 µM)
MIC (Escherichia coli [9]): 0.008 µg/mL (≈ 0.0167 µM)
MIC (Escherichia coli [10]): 1 µg/mL (≈ 2.08 µM)

SMILES: Cc1[nH]c2ccc(Cl)cc2c(=O)c1CC(=O)O
MIC (Escherichia coli [6]): 8.97 µg/mL (≈ 35.6 µM)

SMILES: CCn1cc(C(=O)O)c(=O)c2cc(F)c(-n3cc(CO[C@H]4O[C@H](COC(C)=O)[C@@H](OC(C)=O)[C@H](OC(C)=O)[C@H]4NC(C)=O)nn3)c(F)c21
MIC (Escherichia coli [2]): > 6.25 µg/mL

SMILES: CCOC(=O)c1c2n(c3cc(N4CCNCC4)c(F)cc3c1=O)C(C)S2 (centres undefined)
ED50 (Escherichia coli [12]): 0.78 mg/kg

SMILES: CC(=O)NC[C@H]1CN(c2ccc(NC3CN(c4nc5c(cc4F)c(=O)c(C(=O)O)cn5C4CC4)C3)c(F)c2)C(=O)O1
MIC (Escherichia coli [1]): ≥ 0.5 µg/mL

SMILES: CCn1cc(C(=O)O)c(=O)c2cc(F)c(-n3cc(CO[C@H]4O[C@H](COC(C)=O)[C@@H](OC(C)=O)[C@H](OC(C)=O)[C@H]4OC(C)=O)nn3)c(F)c21
MIC (Escherichia coli [2]): > 6.25 µg/mL

SMILES: O=c1[nH]c2ccc(F)cc2c2c1cnn2Cc1ccccc1
diameter of the inhibition zone (DIZ) (Escherichia coli [5]): 7 mm

SMILES: Cc1[nH]c2c(C)cc([N+](=O)[O-])cc2c(=O)c1CC(=O)O
MIC (Escherichia coli [6]): 8.97 µg/mL (≈ 32.5 µM)

SMILES: O=C(O)c1cn(C2CC2)c2c(cc(F)c3nc(-c4ccncc4)[nH]c32)c1=O
MIC (Escherichia coli [4]): > 3 µg/mL

SMILES: O=C(O)c1cn(C2CC2)c2c(cc(F)c3nc(-c4ccoc4)[nH]c32)c1=O
MIC (Escherichia coli [4]): > 3 µg/mL

SMILES: Cc1ccc2[nH]c(=O)c3cnn(Cc4ccccc4)c3c2c1
diameter of the inhibition zone (DIZ) (Escherichia coli [5]): 7 mm

SMILES: Nc1cc(-n2cc(C(=O)O)c(=O)c3cc(F)c(N4CC(N)C4)c(Cl)c32)c(CO)cc1F
MIC (Escherichia coli [7]): 0.008 µg/mL (≈ 0.0177 µM)
MIC (Escherichia coli [8]): 1 µg/mL (≈ 2.22 µM)
MIC (Escherichia coli [9]): 0.008 µg/mL (≈ 0.0177 µM)
MIC (Escherichia coli [10]): 1 µg/mL (≈ 2.22 µM)

SMILES: CNC1CN(c2c(F)c(C)c3c(=O)c(C(=O)O)cn(-c4cc(N)c(F)cc4CO)c3c2Cl)C1
MIC (Escherichia coli [7]): 0.008 µg/mL (≈ 0.0167 µM)
MIC (Escherichia coli [8]): 1 µg/mL (≈ 2.09 µM)
MIC (Escherichia coli [9]): 0.008 µg/mL (≈ 0.0167 µM)
MIC (Escherichia coli [10]): 1 µg/mL (≈ 2.09 µM)

The next lines start with the values.

MIC (Escherichia coli [3]): ≤ 0.018 µg/mL
SMILES: CCn1cc(C(=O)O)c(=O)c2cc(F)c(N3CCN(CN4C(=O)/C(=N/NC(N)=S)c5ccccc54)CC3)cc21

MIC (Escherichia coli [1]): ≥ 0.5 µg/mL
SMILES: CC(=O)NC[C@H]1CN(c2ccc(N3CCN(c4cc5c(cc4F)c(=O)c(C(=O)O)cn5C4CC4)CC3)c(F)c2)C(=O)O1

MIC (Escherichia coli [3]): ≤ 0.018 µg/mL
SMILES: CCn1cc(C(=O)O)c(=O)c2cc(F)c(N3CCN(CN4C(=O)/C(=N/NC(N)=S)c5cc(Cl)ccc54)CC3)cc21

MIC (Escherichia coli [11]): 25 µg/mL (≈ 50.6 µM)
SMILES: COc1ccc(N2CCN(Cn3nc(COc4cc(=O)n(C)c5ccccc45)oc3=S)CC2)cc1

MIC (Escherichia coli [3]): ≤ 0.018 µg/mL
SMILES: CCn1cc(C(=O)O)c(=O)c2cc(F)c(N3CCN(CN4C(=O)C(=O)c5ccccc54)CC3)cc21

MIC (Escherichia coli [3]): ≤ 0.018 µg/mL
SMILES: CCn1cc(C(=O)O)c(=O)c2cc(F)c(N3CCN(CN4C(=O)C(=O)c5cc(Br)ccc54)CC3)cc21

MIC (Escherichia coli [3]): ≤ 0.018 µg/mL
SMILES: CCn1cc(C(=O)O)c(=O)c2cc(F)c(N3CCN(CN4C(=O)/C(=N/NC(N)=S)c5cc(Br)ccc54)CC3)cc21

MIC (Escherichia coli [11]): 25 µg/mL (≈ 47 µM)
SMILES: Cn1c(=O)cc(OCc2nn(CN3CCN(c4ccc(C(F)(F)F)cc4)CC3)c(=S)o2)c2ccccc21

MIC (Escherichia coli [11]): 25 µg/mL (≈ 51.9 µM)
SMILES: Cn1c(=O)cc(OCc2nn(CN3CCN(c4ccc(F)cc4)CC3)c(=S)o2)c2ccccc21

MIC (Escherichia coli [11]): 25 µg/mL (≈ 45.7 µM)
SMILES: Cn1c(=O)cc(OCc2nn(CN3CCN(c4cccc(C(F)(F)F)c4)CC3)c(=S)s2)c2ccccc21

MIC (Escherichia coli [1]): ≥ 0.5 µg/mL
SMILES: CC(=O)NC[C@H]1CN(c2ccc(N[C@@H]3CCN(c4cc5c(cc4F)c(=O)c(C(=O)O)cn5C4CC4)C3)c(F)c2)C(=O)O1

MIC (Escherichia coli [4]): > 3 µg/mL
SMILES: O=C(O)c1cn(C2CC2)c2c(cc(F)c3nc(-c4ccc(F)cc4)[nH]c32)c1=O

MIC (Escherichia coli [11]): 25 µg/mL (≈ 50.2 µM)
SMILES: Cn1c(=O)cc(OCc2nn(CN3CCN(c4ccccc4F)CC3)c(=S)s2)c2ccccc21

MIC (Escherichia coli [13]): 0.02 µg/mL (≈ 0.0248 µM)
SMILES: COc1cc(Cc2cnc(/N=C3\C(=O)N(CN4CCN(c5c(F)cc6c(=O)c(C(=O)O)cn(C7CC7)c6c5OC)CC4C)c4ccccc43)nc2N)cc(OC)c1OC (centres undefined)

MIC (Escherichia coli [11]): 25 µg/mL (≈ 51.9 µM)
SMILES: Cn1c(=O)cc(OCc2nn(CN3CCN(c4ccccc4F)CC3)c(=S)o2)c2ccccc21
